Assay results published in US7695930B2, “Method for the detection, identification and/or quantification of microoganisms with peptidase activity using phenoxazinone derivatives as enzyme substrates” (Biomerieux, priority 2003, dated 2010).
Like-named read-outs stand apart in the source and are kept apart here.

What was measured:
Burkholderia cepacia 1 = settings: 60 mg/l
Protocol: (§1) 300 ml of Columbia medium were melted in a waterbath at 100° C. and autoclaved at 121° C. for 15 min. The product was then cooled to 50° C. in a waterbath.
(§2) This medium was separated into 3 flasks of 100 ml, and then, added at 50° C., as substrates, were those of Examples 4 and 6 for which the amino acid is β-alanine (respectively, β-alanine-9-amino-6-carbethoxybenzo[a]phenoxazin-5-one or β-Ala-ACAP and β-alanine-9-amino-6-chlorobenzo[a]phenoxazin-5-one or β-Ala-ACHP), solubilized in DMSO, according to the concentrations indicated in Table 5 below:
(§3) The medium was then poured into Petri dishes.
(§4) Nine microorganism strains derived from the Applicant's collection, suspended in physiological saline, were seeded onto the media prepared in point 14.1 above according to a multipoint inoculation in a proportion of 100 000 cfu/spot. The dishes were incubated at 37° C. for 48 hours. The colonies formed (one colony per strain) were examined visually after incubation for 24 and 48 hours.
(§5) The results are expressed in Table 6 hereinafter according to the rules and the nomenclature stated in paragraph 11.3 and where RP signifies pale pink.

Burkholderia cepacia 2 = settings: 60 mg/l
Protocol: as §1, §2, §3, §4, §5

Candida albicans (NCTC) = settings: 60 mg/l
Protocol: as §1, §2, §3, §4, §5

[1] = system: Enterobacter cloacae (NCTC 11936); settings: 60 mg/l
Protocol: as §1, §2, §3, §4, §5

[2] = system: Enteroccus faecalis (NCTC 775); settings: 60 mg/l
Protocol: as §1, §2, §3, §4, §5

[3] = system: Escherichia coli (NCTC 10418); settings: 60 mg/l
Protocol: as §1, §2, §3, §4, §5

Pseudomonas aeruginosa 1 = settings: 60 mg/l
Protocol: as §1, §2, §3, §4, §5

Pseudomonas aeruginosa 2 = settings: 60 mg/l
Protocol: as §1, §2, §3, §4, §5

Pseudomonas aeruginosa 3 = settings: 60 mg/l
Protocol: as §1, §2, §3, §4, §5

Acinetobacter baumanii = assay: Alanyl-peptidase detection on agar medium (Example 13); assay type: cell-based; settings: 50 mg/l
Protocol: (§6) The detection media were prepared by mixing 3.6 g of biogelytone (bioMérieux), 2.16 g of meat extract (bioMérieux), 1.26 g of malt extract (bioMérieux), 5.76 g of NaCl (Merck) and 10.8 g of agar (bioMérieux).
(§7) 720 ml of osmosed water were added to the powder, and the mixture was then melted in a waterbath at […]. The product was separated into two flasks, each of 360 ml. Autoclaving was carried out at 121° C. for 15 min and the product was cooled to […]. in a waterbath.
(§8) L-Alanyl-7-amino-4-methylcoumarin (Ala-AMC, Bachem) was then added to the first flask as a control, at the final concentration of 50 mg/l, and L-alanyl-9-aminobenzo[a]phenoxazin-5-one (Ala-ABP, substrate of the invention obtained in Example 2, in which the amino acid is L-alanine), was then added to the second flask at the final concentration of 25 mg/l.
(§9) The size of the colonies, their coloration and also the intensity of this coloration were noted.

Bacillus subtilis = assay: as above; assay type: cell-based; settings: 50 mg/l
Protocol: as §6, §7, §8, §9

Candida albicans = assay: as above; assay type: cell-based; settings: 50 mg/l
Protocol: as §6, §7, §8, §9

Candida glabrata = assay: as above; assay type: cell-based; settings: 50 mg/l
Protocol: as §6, §7, §8, §9

Candida krusei = assay: as above; assay type: cell-based; settings: 50 mg/l
Protocol: as §6, §7, §8, §9

[4] = system: Corynebacterium Pseudodiphteriticum; assay: as above; assay type: cell-based; settings: 50 mg/l
Protocol: as §6, §7, §8, §9

Edwardsiella tarda = assay: as above; assay type: cell-based; settings: 50 mg/l
Protocol: as §6, §7, §8, §9

Enterobacter cloacae = assay: as above; assay type: cell-based; settings: 50 mg/l
Protocol: as §6, §7, §8, §9

Enterococcus faecalis = assay: as above; assay type: cell-based; settings: 50 mg/l
Protocol: as §6, §7, §8, §9

Enterococcus faecium = assay: as above; assay type: cell-based; settings: 50 mg/l
Protocol: as §6, §7, §8, §9

Escherichia coli = assay: as above; assay type: cell-based; settings: 50 mg/l
Protocol: as §6, §7, §8, §9

Hafnia alvei = assay: as above; assay type: cell-based; settings: 50 mg/l
Protocol: as §6, §7, §8, §9

Klebsiella pneumoniae = assay: as above; assay type: cell-based; settings: 50 mg/l
Protocol: as §6, §7, §8, §9

Listeria innocua = assay: as above; assay type: cell-based; settings: 50 mg/l
Protocol: as §6, §7, §8, §9

Proteus mirabilis = assay: as above; assay type: cell-based; settings: 50 mg/l
Protocol: as §6, §7, §8, §9

Pseudomonas aeruginosa = assay: as above; assay type: cell-based; settings: 50 mg/l
Protocol: as §6, §7, §8, §9

Saccharomyces cerevisiae = assay: as above; assay type: cell-based; settings: 50 mg/l
Protocol: as §6, §7, §8, §9

Salmonella typhimurium = assay: as above; assay type: cell-based; settings: 50 mg/l
Protocol: as §6, §7, §8, §9

Serratia liquefaciens = assay: as above; assay type: cell-based; settings: 50 mg/l
Protocol: as §6, §7, §8, §9

Serratia marcescens = assay: as above; assay type: cell-based; settings: 50 mg/l
Protocol: as §6, §7, §8, §9

Staphylococcus aureus = assay: as above; assay type: cell-based; settings: 50 mg/l
Protocol: as §6, §7, §8, §9

[5] = system: Staphylococcus epidermidis; assay: as above; assay type: cell-based; settings: 50 mg/l
Protocol: as §6, §7, §8, §9

[6] = system: Staphylococcus saprophyticus; assay: as above; assay type: cell-based; settings: 50 mg/l
Protocol: as §6, §7, §8, §9

Streptococcus agalactiae = assay: as above; assay type: cell-based; settings: 50 mg/l
Protocol: as §6, §7, §8, §9

Streptococcus pyogenes = assay: as above; assay type: cell-based; settings: 50 mg/l
Protocol: as §6, §7, §8, §9

β-alanine-9-amino-6-carbethoxybenzo[a]phenoxazin-5-one [β-Ala-ACAP]
2 mm: growth diameter (Burkholderia cepacia 1; 24 h) | growth diameter (Burkholderia cepacia 1; 48 h) | growth diameter (Burkholderia cepacia 2; 24 h) | growth diameter (Burkholderia cepacia 2; 48 h) | growth diameter (Candida albicans (NCTC); 24 h) | growth diameter (Candida albicans (NCTC); 48 h) | growth diameter ([2]; 24 h) | growth diameter ([2]; 48 h) | growth diameter ([3]; 24 h) | growth diameter (Pseudomonas aeruginosa 3; 48 h)
1: intensity of coloration, scale 0 to 4 (Pseudomonas aeruginosa 1; 24 h)
3: intensity of coloration, scale 0 to 4 (Pseudomonas aeruginosa 1; 48 h) | intensity of coloration, scale 0 to 4 (Pseudomonas aeruginosa 3; 48 h)
R: color of the colony (Pseudomonas aeruginosa 1; 24 h) | color of the colony (Pseudomonas aeruginosa 1; 48 h) | color of the colony (Pseudomonas aeruginosa 2; 24 h) | color of the colony (Pseudomonas aeruginosa 2; 48 h) | color of the colony (Pseudomonas aeruginosa 3; 24 h) | color of the colony (Pseudomonas aeruginosa 3; 48 h)
2: intensity of coloration, scale 0 to 4 (Pseudomonas aeruginosa 2; 24 h) | intensity of coloration, scale 0 to 4 (Pseudomonas aeruginosa 2; 48 h) | intensity of coloration, scale 0 to 4 (Pseudomonas aeruginosa 3; 24 h)
3 mm: growth diameter ([1]; 24 h) | growth diameter ([1]; 48 h) | growth diameter ([3]; 48 h) | growth diameter (Pseudomonas aeruginosa 1; 24 h) | growth diameter (Pseudomonas aeruginosa 1; 48 h) | growth diameter (Pseudomonas aeruginosa 2; 24 h) | growth diameter (Pseudomonas aeruginosa 2; 48 h)
1 mm: growth diameter (Pseudomonas aeruginosa 3; 24 h)

Cc1cc(=O)oc2cc(NC(=O)[C@H](C)N)ccc12 [Ala-AMC, L-Alanyl-7-amino-4-methylcoumarin, reference compound]
3: intensity of coloration, scale 0 to 4 (Acinetobacter baumanii; 24 h) | intensity of coloration, scale 0 to 4 (Acinetobacter baumanii; 48 h) | intensity of coloration, scale 0 to 4 (Edwardsiella tarda; 24 h) | intensity of coloration, scale 0 to 4 (Edwardsiella tarda; 48 h) | intensity of coloration, scale 0 to 4 (Enterobacter cloacae; 24 h) | intensity of coloration, scale 0 to 4 (Enterobacter cloacae; 48 h) | intensity of coloration, scale 0 to 4 (Escherichia coli; 24 h) | intensity of coloration, scale 0 to 4 (Escherichia coli; 48 h) | intensity of coloration, scale 0 to 4 (Hafnia alvei; 24 h) | intensity of coloration, scale 0 to 4 (Hafnia alvei; 48 h) | intensity of coloration, scale 0 to 4 (Klebsiella pneumoniae; 24 h) | intensity of coloration, scale 0 to 4 (Klebsiella pneumoniae; 48 h) | intensity of coloration, scale 0 to 4 (Proteus mirabilis; 24 h) | intensity of coloration, scale 0 to 4 (Proteus mirabilis; 48 h) | intensity of coloration, scale 0 to 4 (Salmonella typhimurium; 24 h) | intensity of coloration, scale 0 to 4 (Salmonella typhimurium; 48 h) | intensity of coloration, scale 0 to 4 (Serratia liquefaciens; 24 h) | intensity of coloration, scale 0 to 4 (Serratia liquefaciens; 48 h) | intensity of coloration, scale 0 to 4 (Serratia marcescens; 24 h) | intensity of coloration, scale 0 to 4 (Serratia marcescens; 48 h) | intensity of coloration, scale 0 to 4 (Streptococcus pyogenes; 48 h)
1.3 mm: growth diameter (Salmonella typhimurium; 24 h) | growth diameter (Serratia liquefaciens; 48 h)
0 mm: growth diameter ([4]; 24 h)
0.2 mm: growth diameter (Candida glabrata; 24 h) | growth diameter (Enterococcus faecium; 24 h) | growth diameter (Listeria innocua; 24 h) | growth diameter (Saccharomyces cerevisiae; 48 h) | growth diameter (Streptococcus agalactiae; 48 h) | growth diameter (Streptococcus pyogenes; 48 h)
1.7 mm: growth diameter (Bacillus subtilis; 24 h) | growth diameter (Escherichia coli; 24 h) | growth diameter (Escherichia coli; 48 h)
0.1 mm: growth diameter (Saccharomyces cerevisiae; 24 h) | growth diameter (Streptococcus agalactiae; 24 h) | growth diameter (Streptococcus pyogenes; 24 h)
0.5 mm: growth diameter (Candida albicans; 48 h) | growth diameter (Edwardsiella tarda; 48 h) | growth diameter (Enterobacter cloacae; 24 h) | growth diameter (Pseudomonas aeruginosa; 48 h) | growth diameter (Serratia marcescens; 24 h) | growth diameter (Staphylococcus aureus; 24 h)
0.7 mm: growth diameter (Candida krusei; 24 h) | growth diameter (Hafnia alvei; 24 h) | growth diameter (Hafnia alvei; 48 h) | growth diameter (Proteus mirabilis; 24 h) | growth diameter (Proteus mirabilis; 48 h) | growth diameter (Serratia liquefaciens; 24 h) | growth diameter (Serratia marcescens; 48 h) | growth diameter (Staphylococcus aureus; 48 h)
0.3 mm: growth diameter (Candida albicans; 24 h) | growth diameter (Candida glabrata; 48 h) | growth diameter (Enterococcus faecalis; 24 h) | growth diameter (Enterococcus faecium; 48 h) | growth diameter (Listeria innocua; 48 h) | growth diameter (Pseudomonas aeruginosa; 24 h) | growth diameter ([5]; 24 h) | growth diameter ([6]; 24 h)
0.25: intensity of coloration, scale 0 to 4 (Candida krusei; 48 h) | intensity of coloration, scale 0 to 4 (Enterococcus faecium; 48 h)
1.5 mm: growth diameter (Acinetobacter baumanii; 24 h) | growth diameter (Acinetobacter baumanii; 48 h) | growth diameter (Candida krusei; 48 h) | growth diameter (Salmonella typhimurium; 48 h)
0.4 mm: growth diameter ([4]; 48 h) | growth diameter (Edwardsiella tarda; 24 h) | growth diameter (Enterococcus faecalis; 48 h) | growth diameter ([5]; 48 h) | growth diameter ([6]; 48 h)
1.2 mm: growth diameter (Klebsiella pneumoniae; 24 h)
0.8 mm: growth diameter (Enterobacter cloacae; 48 h)
2: intensity of coloration, scale 0 to 4 (Candida albicans; 48 h) | intensity of coloration, scale 0 to 4 ([4]; 48 h) | intensity of coloration, scale 0 to 4 (Pseudomonas aeruginosa; 48 h)
1.8 mm: growth diameter (Bacillus subtilis; 48 h) | growth diameter (Klebsiella pneumoniae; 48 h)

β-alanine-9-amino-6-chlorobenzo[a]phenoxazin-5-one [β-Ala-ACHP]
1 mm: growth diameter ([2]; 24 h) | growth diameter ([2]; 48 h) | growth diameter (Pseudomonas aeruginosa 3; 24 h)
2: intensity of coloration, scale 0 to 4 (Pseudomonas aeruginosa 1; 24 h) | intensity of coloration, scale 0 to 4 (Pseudomonas aeruginosa 1; 48 h) | intensity of coloration, scale 0 to 4 (Pseudomonas aeruginosa 2; 24 h) | intensity of coloration, scale 0 to 4 (Pseudomonas aeruginosa 2; 48 h) | intensity of coloration, scale 0 to 4 (Pseudomonas aeruginosa 3; 24 h) | intensity of coloration, scale 0 to 4 (Pseudomonas aeruginosa 3; 48 h)
R: color of the colony (Pseudomonas aeruginosa 1; 24 h) | color of the colony (Pseudomonas aeruginosa 2; 24 h) | color of the colony (Pseudomonas aeruginosa 3; 24 h)
3 mm: growth diameter ([1]; 48 h) | growth diameter ([3]; 48 h) | growth diameter (Pseudomonas aeruginosa 1; 24 h) | growth diameter (Pseudomonas aeruginosa 1; 48 h) | growth diameter (Pseudomonas aeruginosa 2; 48 h)
2 mm: growth diameter (Burkholderia cepacia 1; 24 h) | growth diameter (Burkholderia cepacia 1; 48 h) | growth diameter (Burkholderia cepacia 2; 24 h) | growth diameter (Burkholderia cepacia 2; 48 h) | growth diameter (Candida albicans (NCTC); 24 h) | growth diameter (Candida albicans (NCTC); 48 h) | growth diameter ([1]; 24 h) | growth diameter ([3]; 24 h) | growth diameter (Pseudomonas aeruginosa 2; 24 h) | growth diameter (Pseudomonas aeruginosa 3; 48 h)
